According to patent US4020076A, “Novel phosphoryloxy-thiazoles” (priority 1974, dated 1977):
Like-named read-outs stand apart in the source and are kept apart here.

Tests used:
Type in all cases: in vivo
[1] = tested on: Musca domestica larvae; test: Contact-ingestion test against Musca domestica larvae; details: read-out: percent of mortality
Protocol: g. Activity against Musca domestica larvae
This contact-ingestion test consisted of placing 2 ml of an acetone solution of different concentrations of the test product on 1 g of bran placed in a watch glass and the solvent was evaporated. The treated bran was placed in a plastic dish and was admixed with 2 ml of milk. 20 3 to 4 day old larvae of Musca domestica were added to the bran and were held at 20° C and 30% relative humidity and 3 tests were conducted for each concentration.

[2] = tested on: Sitophilus granarius; test: Topical application test against Sitophilus granarius; details: read-out: percent mortality
Protocol: c. Test against Sitophilus granarius
This topical application test comprised preparing the test compounds in acetone solution at concentrations of 5000, 500 and 50 mg of the active compound per liter and 0.2 μl of the solutions were applied to the ventral thorax of 50 Sitophilus granarius for each concentration.

[3] = tested on: Musca domestica; test: Topical application activity against Musca domestica; details: read-out: percent of mortality
Protocol: d. Activity against Musca domestica
This topical application test consisted of placing a microliter of an acetone solution of the test product on the dorsal thorax of Musca domestica after having been put to sleep with ether. The insects were held at 20° C and 50% relative humidity and were fed milk and water.

[4] = tested on: Blattella germanica; test: Topical application activity against Blattella germanica; details: read-out: percent of mortality
Protocol: b. Activity against Blattella germanica
This test was a topical application in which adult male Blattella germanica received 2 microliters of an acetone solution of the test products between the second and third pair of paws. After this treatment, the test insects were held in a dim light at 20° C and were fed. The results expressed as percent of mortality in Table II were read 24 and 48 hours and 5 days after the treatment.

[5] = tested on: Ditylenchus Myceliophagus; test: Acaricide activity, Ditylenchus Myceliophagus; details: 24 h, read-out: Percent of mortality after 24 hours; for mortality at 1 µg/mL: 0.001 g/l; for mortality at 10 µg/mL: 0.010 g/l; for mortality at 100 µg/mL: 0.1 g/l
Protocol: In an apparatus containing 10 ml of an aqueous solution of the test product, 0.5 ml of water containing about 2000 acariens of Ditylenchus Myceliophagus were added thereto and the percent of mortality was determined by a binocular magnifying glass after 24 hours.

[6] = tested on: Spodoptera littoralis; test: Ingestion test against Spodoptera littoralis caterpillars; details: po, read-out: percent of mortality
Protocol: e. Activity against Spodoptera littoralis
This test was effected with Spodoptera littoralis caterpillars 1 to 1.5 cm long and an average of 10 days old. In this ingestion test, 4 ml of an acetone solution of the test products was placed on lettuce rings with an 8 mm diameter which were placed in closed plastic dishes with a 5 cm diameter. 15 caterpillars were placed in each dish and were held at 20° C and 50% relative humidity and were fed when the insects had eaten the treated lettuce ring.

[7] = tested on: Drosophila melanogaster; test: Vapor activity against Drosophila melanogaster; details: inhaled or nasal, read-out: percentage of mortality
Protocol: a. Activity against Drosophila melanogaster
This test measures the vapor activity of the compounds and the less than 48 hours old insects were placed in a Petri dish with a 10 cm diameter connected by a tergal screen to a crystallizer of the same diameter in which the test compound in acetone solution is placed. The said solution is evaporated after the insects have been placed and 3 tests with 25 insects were run for each concentration. The results are expressed in Table I as a percentage of mortality after 1, 2, 4 and 6 hours.

[8] = tested on: Panagrellus silusiae; test: Nematocidal activity against Panagrellus silusiae
Protocol: b. Activity against Panagrellus silusiae
30 nematodes were placed on a watch glass and three tests were run for each concentration. The 3 watch glasses for each treatment were placed in a Petri dish with a 15 cm diameter containing a film of water in a manner to retard evaporation of the solution to wet the nematodes. The concentration of the product was 125 mg of MA/L and 1 ml of toxic solution was placed on each watch glass containing the nematodes in 0.5 ml of water.

[9] = tested on: Meloidogynes spec; test: Nematocidal activity against Meloidogynes spec (tomato root galls); details: 25 Kg/ha
Protocol: a. Activity against Meloidogynes spec
A volume of about 3 liters of dirt infested with Meloidogynes spec was placed in a plastic sack. Nematocidal treatments are considered effective to a depth of 30 cm, a volume of 3 liters of dirt corresponding to a surface area of 100 cm^ 2 or 10^-^6 ha (since 100 cm^ 2 × 30 cm = 3000 ml or 3 liters). Each volume of infested dirt received 100 ml of an aqueous suspension containing 0.250 g of the test product (corresponding to 250 Kg/ha) and the controls received only 100 ml of water. The plastic sacks containing the dirt were immediately sealed after the treatment and then agitated to obtain a good distribution of the product. Two weeks after the treatment, the sacks were opened and the dirt was used to plant 3 tomato plants of St. Pierre variety. The plants used were raised in the greenhouse with dirt sterilized with heat to obtain plants free of nematodes. Three plants were used for each test which was run 6 times for each treatment. Two months after planting the tomatoes were removed from the dirt and the efficacy was determined by counting the number of galls observed on the roots. A correlation between the population of Meloidogynes in the pot and the number of galls exists.

SMILES: CCOc1nc(OP(=S)(OCC)OCC)c(C#N)s1 [A, 2-ethoxy-4-diethoxythiophosphoryloxy-5-cyano-thiazole]
- mortality at 500 ppm ([1]; 48 H): 37%
- mortality at 5000 ppm ([1]; 48 H): 64%
- mortality at 500 ppm ([1]; 192 h, 8 Days): 63%
- mortality at 5000 ppm ([1]; 192 h, 8 Days): 92%
- mortality at 50 ppm ([2]; 4 H): 0%
- mortality at 500 ppm ([2]; 4 H): 100%
- mortality at 5000 ppm ([2]; 4 H): 100%
- mortality at 50 ppm ([2]; 24 H): 0%
- mortality at 500 ppm ([2]; 24 H): 100%
- mortality at 5000 ppm ([2]; 24 H): 100%
- mortality at 50 ppm ([2]; 120 h, 5 Days): 0%
- mortality at 500 ppm ([2]; 120 h, 5 Days): 100%
- mortality at 5000 ppm ([2]; 120 h, 5 Days): 100%
- mortality at 500 ppm ([3]; 1 H): 91%
- mortality at 2500 ppm ([3]; 1 H): 100%
- mortality at 5000 ppm ([3]; 1 H): 100%
- mortality at 500 ppm ([3]; 24 H): 94%
- mortality at 2500 ppm ([3]; 24 H): 100%
- mortality at 5000 ppm ([3]; 24 H): 100%
- mortality at 312.5 ppm ([4]; 24 H): 65%
- mortality at 625 ppm ([4]; 24 H, 625 ppm): 100%
- mortality at 1250 ppm ([4]; 24 H, 1250 ppm): 100%
- mortality at 312.5 ppm ([4]; 48 H): 70%
- mortality at 625 ppm ([4]; 48 H, 625 ppm): 100%
- mortality at 1250 ppm ([4]; 48 H, 1250 ppm): 100%
- mortality at 625 ppm ([4]; 120 h): 30%
- mortality at 1250 ppm ([4]; 120 h): 100%
- mortality at 1 µg/mL [5]: 81.8%
- mortality at 10 µg/mL [5]: 91.6%
- mortality at 100 µg/mL [5]: 100%
- mortality at 62.5 ppm ([6]; 1 H, 62.5 ppm, ingestion): 0%
- mortality at 125 ppm ([6]; 1 H, 125 ppm, ingestion): 0%
- mortality at 250 ppm ([6]; 1 H, 250 ppm, ingestion): 0%
- mortality at 62.5 ppm ([6]; 48 H, 62.5 ppm, ingestion): 80%
- mortality at 125 ppm ([6]; 48 H, 125 ppm, ingestion): 100%
- mortality at 250 ppm ([6]; 48 H, 250 ppm, ingestion): 100%
- mortality at 62.5 ppm ([6]; 24 h): 60%
- mortality at 125 ppm ([6]; 24 h): 100%
- mortality at 250 ppm ([6]; 24 h): 90%
- mortality at 5 ppm ([7]; 1 H): 99%
- mortality at 50 ppm ([7]; 1 H): 100%
- mortality at 500 ppm ([7]; 1 H): 100%
- mortality at 5 ppm ([7]; 4 H): 100%
- mortality at 50 ppm ([7]; 4 H): 100%
- mortality at 500 ppm ([7]; 4 H): 100%
- mortality at 5 ppm ([7]; 6 H): 100%
- mortality at 50 ppm ([7]; 6 H): 100%
- mortality at 500 ppm ([7]; 6 H): 100%

SMILES: CCCCOc1nc(OP(=S)(OC)OC)c(C#N)s1 [Compound B, 2-n-butoxy-4-dimethoxythiophosphoryloxy-5-cyano-thiazole]
- mortality at 500 ppm ([1]; 48 H): 88%
- mortality at 5000 ppm ([1]; 48 H): 93%
- mortality at 500 ppm ([1]; 192 h, 8 Days): 98%
- mortality at 5000 ppm ([1]; 192 h, 8 Days): 98%
- mortality at 50 ppm ([2]; 4 H): 0%
- mortality at 500 ppm ([2]; 4 H): 96%
- mortality at 5000 ppm ([2]; 4 H): 100%
- mortality at 50 ppm ([2]; 24 H): 0%
- mortality at 500 ppm ([2]; 24 H): 100%
- mortality at 5000 ppm ([2]; 24 H): 100%
- mortality at 50 ppm ([2]; 120 h, 5 Days): 0%
- mortality at 500 ppm ([2]; 120 h, 5 Days): 100%
- mortality at 5000 ppm ([2]; 120 h, 5 Days): 100%
- mortality at 500 ppm ([3]; 1 H): 96%
- mortality at 2500 ppm ([3]; 1 H): 100%
- mortality at 5000 ppm ([3]; 1 H): 100%
- mortality at 500 ppm ([3]; 24 H): 100%
- mortality at 2500 ppm ([3]; 24 H): 100%
- mortality at 5000 ppm ([3]; 24 H): 100%
- mortality at 1 µg/mL ([8]; 0.001 g/l, 24 hours): 89.3%
- mortality at 10 µg/mL ([8]; 0.01 g/l, 24 hours): 100%
- mortality at 100 µg/mL ([8]; 24 h, read-out: % of mortality): 100%
- mortality at 1 µg/mL [5]: 43.3%
- mortality at 10 µg/mL [5]: 95.9%
- mortality at 100 µg/mL [5]: 98.5%
- mortality at 125 ppm ([6]; 1 H, 125 ppm, ingestion): 0%
- mortality at 250 ppm ([6]; 1 H, 250 ppm, ingestion): 0%
- mortality at 500 ppm ([6]; 1 H, ingestion): 0%
- mortality at 125 ppm ([6]; 24 H, 125 ppm, ingestion): 50%
- mortality at 250 ppm ([6]; 24 H, 250 ppm, ingestion): 100%
- mortality at 500 ppm ([6]; 24 H, ingestion): 100%
- mortality at 125 ppm ([6]; 48 H, 125 ppm, ingestion): 90%
- mortality at 250 ppm ([6]; 48 H, 250 ppm, ingestion): 100%
- mortality at 500 ppm ([6]; 48 H, ingestion): 100%
- mortality at 5 ppm ([7]; 1 H): 0%
- mortality at 50 ppm ([7]; 1 H): 77%
- mortality at 500 ppm ([7]; 1 H): 100%
- mortality at 5 ppm ([7]; 4 H): 100%
- mortality at 50 ppm ([7]; 4 H): 100%
- mortality at 500 ppm ([7]; 4 H): 100%
- mortality at 5 ppm ([7]; 6 H): 100%
- mortality at 50 ppm ([7]; 6 H): 100%
- mortality at 500 ppm ([7]; 6 H): 100%

SMILES: CCOc1nc(OP(=O)(OC)OC)c(C#N)s1 [Compound D, 2-ethoxy-4-dimethoxyphosphoryloxy-5-cyano-thiazole]
- mortality at 5000 ppm ([1]; 192 h, 8 Days): 90%
- mortality at 5000 ppm ([2]; 4 H): 100%
- mortality at 5000 ppm ([2]; 24 H): 100%
- mortality at 5000 ppm ([2]; 120 h, 5 Days): 100%
- mortality at 5000 ppm ([3]; 24 H): 64%
- mortality at 5000 ppm ([4]; 24 H): 100%
- mortality at 5000 ppm ([4]; 48 H): 100%
- mortality at 5000 ppm ([4]; 120 h, 5 Days): 100%
- mortality at 500 ppm ([7]; 2 H): 100%
- mortality at 500 ppm ([7]; 6 H): 100%
- Relative efficacity in % as compound to controls [9]: 52.8%
- Number of galls per foot ([9]; control 44.4): 31.25
- Total number of galls ([9]; control 222): 125
